Data from US11998544B2, “Methods of using splicing modulators” (EISAI R&D MANAGEMENT CO., LTD., priority 2018, dated 2024).

Columns and labels:
[1] = test system: CT26 syngeneic tumors; experiment: Efficacy study, mouse colon cancer syngeneic model (CT26); format: in vivo; conditions: Balb/c mice with CT26 tumors; Compound 1 at any dose level or schedule; FIG. 1A
Procedure: Efficacy Study Protocol: Mouse Colon Cancer Syngeneic Model
CT26 colon cancer cells (0.25×10^6; ATCC Cat # CRL-2638) were implanted subcutaneously into the right flank of eight-week old female Balb/c mice (Envigo) in 100 μL of PBS lacking matrigel. CT26 tumors were allowed to grow to an average of ˜100 mm^3 before animals were enrolled onto the efficacy study. Each treatment group contained 12 mice. Mice were treated with Compound 1, an anti-CTLA4 antibody (Bio X Cell Catalog Number: BE0164 (αCTLA4 9D9)), or a combination at doses and routes of administration as shown in FIG. 1. Compound 1 was formulated in a composition containing 5% ethanol and 95% methylcellulose solution (0.5% methylcellulose. The anti-CTLA4 antibody was formulated in phosphate buffer solution at pH 7.0. Tumors were measured 3 times per week for up to 19 days. Tumor volumes were calculated using the ellipsoid formula: Tumor Volume=(length×width^2)/2

[2] = test system: SF3b1 mutant cell lines; conditions: previously shown, U.S. Pat. No. 9,481,669 B2 and PCT/US2016/062525, cited from earlier work
[3] = in vivo; cited from earlier work

Molecule | antitumor activity (growth curves compared to vehicle treated controls) [1] | cellular lethality ([2]; SF3b1 mutant cell lines) | splicing modulator activity [2] | plasma half-life [3]
C/C(=C\C=C\[C@@H](C)c1ccccn1)[C@H]1OC(=O)C[C@H](O)CC[C@@](C)(O)[C@@H](OC(=O)N2CCN(C)CC2)/C=C/[C@@H]1C [Compound 1, (2S,3S,6S,7R,10R,E)-7,10-dihydroxy-3,7-dimethyl-12-oxo-2-((R,2E,4E)-6-(pyridin-2-yl)hepta-2,4-dien-2-yl)oxacyclododec-4-en-6-yl 4-methylpiperazine-1-carboxylate] | did not result in noticeable antitumor activity | cellular lethality in SF3b1 mutant cell lines | demonstrate splicing modulator activity | 
Ipilimumab: fully human anti-CTLA4 antibody, an IgG1 |  |  |  | 12 to 14 days
tremelimumab: fully human anti-CTLA4 antibody, an IgG2 |  |  |  | approximately 22 days
